Laboratory results reported in patent US6479435B1, “Diaryl ethers and processes for their preparation and herbicidal and desiccant compositions containing them” (ISK Americas Incorporated, priority 1997, dated 2002).

Tests used:
Type in all cases: in vivo
[1] = tested on: upland rice (Oryza sp., var.Tebonnet, RICE); assay: Post-emerge greenhouse test, crop damage rating; conditions: 14 days after application, scale 0-100
In short: (§1)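 Plants at the 2-3 leaf stage, sown 8-21 days earlier, were track-sprayed post-emergence with compound in acetone plus 0.25% v/v non-ionic surfactant at 63-1000 g ai/ha (187 l/ha). Damage was rated at 14 days on a 0-100 scale (0 none, 100 all plants dead), for both crop injury and weed control.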

[2] = tested on: field corn (Zea mays L., var. Dekalb 535, CORN); assay: Post-emerge greenhouse test, crop damage rating; conditions: 14 days after application, scale 0-100
In short: as §1

[3] = tested on: redroot pigweed (Amaranthus retroflexus, AMARE); assay: Pre-emerge greenhouse herbicide test, phytotoxicity rating; conditions: 14 days after application, rating scale 0-100
In short: (§2)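 Seeds sown in sandy loam one day before track-sprayer application of acetone solutions at 125–1000 g ai/ha (187 l/ha), then surface-watered to incorporate and bottom-watered. Injury scored visually at 14 days on a 0–100 scale (0 no damage, 100 complete death).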

[4] = tested on: green foxtail (Setaria viridis, SETVI); assay: as above; conditions: 14 days after application, rating scale 0-100
In short: as §2

[5] = tested on: velvetleaf (Abutilon theophrasti, ABUTH); assay: as above; conditions: 14 days after application, rating scale 0-100
In short: as §2

[6] = tested on: barnyardgrass (Echinochloa crusgalli, ECHCG); assay: as above; conditions: 14 days after application, rating scale 0-100
In short: as §2

[7] = tested on: large crabgrass (Digitaria sanguinalis, DIGSA); assay: as above; conditions: 14 days after application, rating scale 0-100
In short: as §2

[8] = tested on: common ragweed (Ambrosia artemisiifolia L., AMBEL); assay: as above; conditions: 14 days after application, rating scale 0-100
In short: as §2

[9] = tested on: ivyleaf morningglory (Ipomoea hederacea, IPOHE); assay: as above; conditions: 14 days after application, rating scale 0-100
In short: as §2

[10] = tested on: Johnsongrass (Sorghum halepense, SORHA); assay: as above; conditions: 14 days after application, rating scale 0-100
In short: as §2

[11] = tested on: sicklepod (Cassia obtusifolia, CASOB); assay: as above; conditions: 14 days after application, rating scale 0-100
In short: as §2

[12] = tested on: lambsquarters (Chenopodium album, CHEAL); assay: as above; conditions: 14 days after application, rating scale 0-100
In short: as §2

[13] = tested on: soybean (Glycine max L., var. Pella 86, SOY); assay: Pre-emerge greenhouse test, crop damage rating; set-up: key to SOY crop damage rating: 0 = no damage, 100 = complete death of all plants; conditions: 14 days after application, rating scale 0-100
In short: as §2

[14] = tested on: soybean (Glycine max L., var. Pella 86, SOY); assay: Post-emerge greenhouse test, crop damage rating; set-up: key to crop damage rating SOY: 0-100 scale: 0 = no damage, 100 = complete death of all plants; conditions: 14 days after application, scale 0-100
In short: as §1

[15] = tested on: upland rice (Oryza sp., var.Tebonnet, RICE); assay: Pre-emerge greenhouse test, crop damage rating; conditions: 14 days after application, rating scale 0-100
In short: as §2

[16] = tested on: field corn (Zea mays L., var. Dekalb 535, CORN); assay: Pre-emerge greenhouse test, crop damage rating; conditions: 14 days after application, rating scale 0-100
In short: as §2

[17] = tested on: common ragweed (Ambrosia artemisiifolia L., AMBEL); assay: Post-emerge greenhouse herbicide test, phytotoxicity rating; conditions: 14 days after application, scale 0-100
In short: as §1

[18] = tested on: redroot pigweed (Amaranthus retroflexus, AMARE); assay: as above; conditions: 14 days after application, scale 0-100
In short: as §1

[19] = tested on: green foxtail (Setaria viridis, SETVI); assay: as above; conditions: 14 days after application, scale 0-100
In short: as §1

[20] = tested on: velvetleaf (Abutilon theophrasti, ABUTH); assay: as above; conditions: 14 days after application, scale 0-100
In short: as §1

[21] = tested on: barnyardgrass (Echinochloa crusgalli, ECHCG); assay: as above; conditions: 14 days after application, scale 0-100
In short: as §1

[22] = tested on: large crabgrass (Digitaria sanguinalis, DIGSA); assay: as above; conditions: 14 days after application, scale 0-100
In short: as §1

[23] = tested on: ivyleaf morningglory (Ipomoea hederacea, IPOHE); assay: as above; conditions: 14 days after application, scale 0-100
In short: as §1

[24] = tested on: Johnsongrass (Sorghum halepense, SORHA); assay: as above; conditions: 14 days after application, scale 0-100
In short: as §1

[25] = tested on: sicklepod (Cassia obtusifolia, CASOB); assay: as above; conditions: 14 days after application, scale 0-100
In short: as §1

[26] = tested on: lambsquarters (Chenopodium album, CHEAL); assay: as above; conditions: 14 days after application, scale 0-100
In short: as §1

SMILES: O=c1n(-c2cc(Oc3ccc([N+](=O)[O-])cn3)c(Cl)cc2F)c(=S)n2n1CCCC2 [Compound 8-23]
- crop damage rating RICE ([1]; rate 63 g ai/ha): 0
- crop damage rating RICE ([1]; rate 500 g ai/ha): 0
- crop damage rating CORN ([2]; rate 63 g ai/ha): 0
- crop damage rating CORN ([2]; rate 500 g ai/ha): 5
- AMARE phytotoxicity rating ([3]; Rate 125 g al/ha): 90
- AMARE phytotoxicity rating ([3]; Rate 500 g al/ha): 100
- SETVI phytotoxicity rating ([4]; Rate 125 g al/ha): 10
- SETVI phytotoxicity rating ([4]; Rate 500 g al/ha): 100
- ABUTH phytotoxicity rating ([5]; Rate 125 g al/ha): 95
- ABUTH phytotoxicity rating ([5]; Rate 500 g al/ha): 100
- ECHCG phytotoxicity rating ([6]; Rate 125 g al/ha): 0
- ECHCG phytotoxicity rating ([6]; Rate 500 g al/ha): 10
- DIGSA phytotoxicity rating ([7]; Rate 125 g al/ha): 0
- DIGSA phytotoxicity rating ([7]; Rate 500 g al/ha): 50
- AMBEL phytotoxicity rating ([8]; Rate 125 g al/ha): 0
- AMBEL phytotoxicity rating ([8]; Rate 500 g al/ha): 60
- IPOHE phytotoxicity rating ([9]; Rate 125 g al/ha): 30
- IPOHE phytotoxicity rating ([9]; Rate 500 g al/ha): 60
- SORHA phytotoxicity rating ([10]; Rate 125 g al/ha): 0
- SORHA phytotoxicity rating ([10]; Rate 500 g al/ha): 30
- CASOB phytotoxicity rating ([11]; Rate 125 g al/ha): 0
- CASOB phytotoxicity rating ([11]; Rate 500 g al/ha): 50
- CHEAL phytotoxicity rating ([12]; Rate 125 g al/ha): 100
- CHEAL phytotoxicity rating ([12]; Rate 500 g al/ha): 100
- SOY crop damage rating ([13]; Rate 125 g al/ha): 0
- SOY crop damage rating ([13]; Rate 500 g al/ha): 20
- crop damage rating SOY ([14]; rate 63 g ai/ha): 25
- crop damage rating SOY ([14]; rate 500 g ai/ha): 60
- RICE crop damage rating ([15]; Rate 125 g al/ha): 0
- RICE crop damage rating ([15]; Rate 500 g al/ha): 0
- CORN crop damage rating ([16]; Rate 125 g al/ha): 0
- CORN crop damage rating ([16]; Rate 500 g al/ha): 0
- phytotoxicity rating AMBEL ([17]; rate 63 g ai/ha): 50
- phytotoxicity rating AMBEL ([17]; rate 500 g ai/ha): 100
- phytotoxicity rating AMARE ([18]; rate 63 g ai/ha): 95
- phytotoxicity rating AMARE ([18]; rate 500 g ai/ha): 99
- phytotoxicity rating SETVI ([19]; rate 63 g ai/ha): 0
- phytotoxicity rating SETVI ([19]; rate 500 g ai/ha): 20
- phytotoxicity rating ABUTH ([20]; rate 63 g ai/ha): 100
- phytotoxicity rating ABUTH ([20]; rate 500 g ai/ha): 100
- phytotoxicity rating ECHCG ([21]; rate 63 g ai/ha): 0
- phytotoxicity rating ECHCG ([21]; rate 500 g ai/ha): 0
- phytotoxicity rating DIGSA ([22]; rate 63 g ai/ha): 0
- phytotoxicity rating DIGSA ([22]; rate 500 g ai/ha): 0
- phytotoxicity rating IPOHE ([23]; rate 63 g ai/ha): 50
- phytotoxicity rating IPOHE ([23]; rate 500 g ai/ha): 100
- phytotoxicity rating SORHA ([24]; rate 63 g ai/ha): 0
- phytotoxicity rating SORHA ([24]; rate 500 g ai/ha): 20
- phytotoxicity rating CASOB ([25]; rate 63 g ai/ha): 70
- phytotoxicity rating CASOB ([25]; rate 500 g ai/ha): 100
- phytotoxicity rating CHEAL ([26]; rate 63 g ai/ha): 95
- phytotoxicity rating CHEAL ([26]; rate 500 g ai/ha): 99

SMILES: O=c1n(-c2cc(Oc3cccc(F)n3)c(Cl)cc2F)c(=S)n2n1CCCC2 [Compound 8-25]
- crop damage rating RICE ([1]; rate 63 g ai/ha): 10
- crop damage rating RICE ([1]; rate 500 g ai/ha): 60
- crop damage rating CORN ([2]; rate 63 g ai/ha): 10
- crop damage rating CORN ([2]; rate 500 g ai/ha): 25
- AMARE phytotoxicity rating ([3]; Rate 125 g al/ha): 100
- AMARE phytotoxicity rating ([3]; Rate 500 g al/ha): 100
- SETVI phytotoxicity rating ([4]; Rate 125 g al/ha): 100
- SETVI phytotoxicity rating ([4]; Rate 500 g al/ha): 100
- ABUTH phytotoxicity rating ([5]; Rate 125 g al/ha): 100
- ABUTH phytotoxicity rating ([5]; Rate 500 g al/ha): 100
- ECHCG phytotoxicity rating ([6]; Rate 125 g al/ha): 40
- ECHCG phytotoxicity rating ([6]; Rate 500 g al/ha): 100
- DIGSA phytotoxicity rating ([7]; Rate 125 g al/ha): 85
- DIGSA phytotoxicity rating ([7]; Rate 500 g al/ha): 100
- AMBEL phytotoxicity rating ([8]; Rate 125 g al/ha): 40
- AMBEL phytotoxicity rating ([8]; Rate 500 g al/ha): 90
- IPOHE phytotoxicity rating ([9]; Rate 125 g al/ha): 20
- IPOHE phytotoxicity rating ([9]; Rate 500 g al/ha): 20
- SORHA phytotoxicity rating ([10]; Rate 125 g al/ha): 70
- SORHA phytotoxicity rating ([10]; Rate 500 g al/ha): 90
- CASOB phytotoxicity rating ([11]; Rate 125 g al/ha): 70
- CASOB phytotoxicity rating ([11]; Rate 500 g al/ha): 100
- CHEAL phytotoxicity rating ([12]; Rate 125 g al/ha): 100
- CHEAL phytotoxicity rating ([12]; Rate 500 g al/ha): 100
- SOY crop damage rating ([13]; Rate 125 g al/ha): 0
- SOY crop damage rating ([13]; Rate 500 g al/ha): 20
- crop damage rating SOY ([14]; rate 63 g ai/ha): 70
- crop damage rating SOY ([14]; rate 500 g ai/ha): 90
- RICE crop damage rating ([15]; Rate 125 g al/ha): 15
- RICE crop damage rating ([15]; Rate 500 g al/ha): 70
- CORN crop damage rating ([16]; Rate 125 g al/ha): 0
- CORN crop damage rating ([16]; Rate 500 g al/ha): 40
- phytotoxicity rating AMBEL ([17]; rate 63 g ai/ha): 90
- phytotoxicity rating AMBEL ([17]; rate 500 g ai/ha): 90
- phytotoxicity rating AMARE ([18]; rate 63 g ai/ha): 100
- phytotoxicity rating AMARE ([18]; rate 500 g ai/ha): 100
- phytotoxicity rating SETVI ([19]; rate 63 g ai/ha): 80
- phytotoxicity rating SETVI ([19]; rate 500 g ai/ha): 95
- phytotoxicity rating ABUTH ([20]; rate 63 g ai/ha): 100
- phytotoxicity rating ABUTH ([20]; rate 500 g ai/ha): 100
- phytotoxicity rating ECHCG ([21]; rate 63 g ai/ha): 20
- phytotoxicity rating ECHCG ([21]; rate 500 g ai/ha): 65
- phytotoxicity rating DIGSA ([22]; rate 63 g ai/ha): 10
- phytotoxicity rating DIGSA ([22]; rate 500 g ai/ha): 40
- phytotoxicity rating IPOHE ([23]; rate 63 g ai/ha): 100
- phytotoxicity rating IPOHE ([23]; rate 500 g ai/ha): 100
- phytotoxicity rating SORHA ([24]; rate 63 g ai/ha): 40
- phytotoxicity rating SORHA ([24]; rate 500 g ai/ha): 60
- phytotoxicity rating CASOB ([25]; rate 63 g ai/ha): 70
- phytotoxicity rating CASOB ([25]; rate 500 g ai/ha): 100
- phytotoxicity rating CHEAL ([26]; rate 63 g ai/ha): 90
- phytotoxicity rating CHEAL ([26]; rate 500 g ai/ha): 100
